pIC50: −log10 of the molar value.
Experiments:
[1] = biological target: IL-17A(FLAG-Tagged): IL-17RA(His-Tagged) binding (Homo sapiens, UniProt Q16552, K93Q); experiment: IL-17A(FLAG-tagged):IL-17RA(His-tagged) binding disruption Eu-HTRF assay, Protocol 2; conditions: FLAG-IL-17A 1 nM; average if tested more than once
Method in brief: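 FLAG-tagged IL-17A (1 nM final) was preincubated with compound (2-fold serial dilutions, 22 points) for 1 h at rt in PBS + 0.01% Triton X-100. 10×His-IL-17RA, Eu-anti-FLAG and D2-anti-His in buffer containing KF were then added for 2 h at rt. IC50 came from the 665/615 nm HTRF ratio fitted to a one-site competition model.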

[2] = system: IL-17A-induced G-CSF production in human normal keratinocyte (NHK); experiment: NHK assay: IL-17A-induced G-CSF production in normal human keratinocytes; type: cell-based; conditions: Homo sapiens, Keratinocyte, 24 h, IL-17A 5 ng/mL, G-CSF by HTRF, average if tested more than once
Method in brief: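 Compound titrations are first mixed with recombinant human IL-17A for 1 h at room temperature. The mixture goes onto adult normal human keratinocytes (final IL-17A 5 ng/mL, 5% FBS, 0.2% DMSO) for 24 h at 37 °C. Secreted G-CSF is then measured by HTRF and IC50 fitted.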

Sequence of UniProt Q16552 (Q16552 with tags, fused parts or gaps K93Q): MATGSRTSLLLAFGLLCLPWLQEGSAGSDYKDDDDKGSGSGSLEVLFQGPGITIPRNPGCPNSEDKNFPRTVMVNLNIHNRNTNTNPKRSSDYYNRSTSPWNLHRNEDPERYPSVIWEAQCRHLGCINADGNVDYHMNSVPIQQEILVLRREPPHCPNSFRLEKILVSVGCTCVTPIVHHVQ

`[2H]C1([2H])NC(=O)N([C@H](COC2CC2)c2cnn3cc([C@@H](NC(=O)c4nonc4C(F)F)C4CCC(F)(F)CC4)nc3c2)C([2H])([2H])C1(F)F` [Example 82, N—((S)-(7-((S)-2-Cyclopropoxy-1-(5,5-difluoro-2-oxotetrahydropyrimidin-1(2H)-yl-4,4,6,6-d4)ethyl)imidazo[1,2-b]pyridazin-2-yl)(4,4-difluorocyclohexyl)methyl)-4-(difluoromethyl)-1,2,5-oxadiazole-3-carboxamide] was tested, and the pIC50 [1] was > 7.30 and the pIC50 [2] was > 7.30.
`[2H]C1([2H])NC(=O)N([C@H](COC)c2cnn3cc([C@H](CCC(C)(C)C(F)(F)F)NC(=O)c4nonc4C(F)(F)F)nc3c2)C([2H])([2H])C1(F)F` [Example 83, N—((S)-1-(7-((S)-1-(5,5-Difluoro-2-oxotetrahydropyrimidin-1(2H)-yl-4,4,6,6-d4)-2-methoxyethyl)imidazo[1,2-b]pyridazin-2-yl)-5,5,5-trifluoro-4,4-dimethylpentyl)-4-(trifluoromethyl)-1,2,5-oxadiazole-3-carboxamide] was tested, and the pIC50 [1] was > 7.30 and the pIC50 [2] was > 7.30.
`COC[C@H](c1cnn2cc([C@@H](NC(=O)c3nonc3C(F)(F)F)C3CCC(F)(F)CC3)nc2c1)N1CC(F)(F)CNC1=O` [Example 84, N—((S)-(7-((S)-1-(5,5-Difluoro-2-oxotetrahydropyrimidin-1(2H)-yl)-2-methoxyethyl)imidazo[1,2-b]pyridazin-2-yl)(4,4-difluorocyclohexyl)methyl)-4-(trifluoromethyl)-1,2,5-oxadiazole-3-carboxamide] was tested, and the pIC50 [1] was > 7.30 and the pIC50 [2] was > 7.30.
With `O=C(N[C@H](c1cn2ncc([C@@H](C(F)F)N3CC(F)(F)CNC3=O)cc2n1)C1CCC(F)(F)CC1)c1nonc1C1CC1` [Example 89, 4-Cyclopropyl-N—((S)-(7-((S)-1-(5,5-difluoro-2-oxotetrahydropyrimidin-1(2H)-yl)-2,2-difluoroethyl)imidazo[1,2-b]pyridazin-2-yl)(4,4-difluorocyclohexyl)methyl)-1,2,5-oxadiazole-3-carboxamide] the pIC50 [1] was > 7.30 and the pIC50 [2] was > 7.30.
In the case of `COC[C@H](c1cnn2cc([C@@H](NC(=O)c3nonc3C)C(C3CC3)C3CC3)nc2c1)N1CC(F)(F)CNC1=O` [Example 102, N—((S)-2,2-Dicyclopropyl-1-(7-((S)-1-(5,5-difluoro-2-oxotetrahydropyrimidin-1(2H)-yl)-2-methoxyethyl)imidazo[1,2-b]pyridazin-2-yl)ethyl)-4-methyl-1,2,5-oxadiazole-3-carboxamide], the pIC50 [1] was > 7.30 and the pIC50 [2] was > 7.30.
For `COC[C@H](c1cnn2cc([C@@H](NC(=O)c3nonc3C3CC3)C(C3CC3)C3CC3)nc2c1)N1CC(F)(F)CNC1=O` [Example 103, 4-Cyclopropyl-N—((S)-2,2-dicyclopropyl-1-(7-((S)-1-(5,5-difluoro-2-oxotetrahydropyrimidin-1(2H)-yl)-2-methoxyethyl)imidazo[1,2-b]pyridazin-2-yl)ethyl)-1,2,5-oxadiazole-3-carboxamide], the pIC50 [1] was > 7.30 and the pIC50 [2] was > 7.30.
For `COC[C@H](c1cnn2cc([C@@H](NC(=O)c3nocc3CC(F)(F)F)C3CCC(F)(F)CC3)nc2c1)N1CC(F)(F)CNC1=O` [Example 106, N—((S)-(7-((S)-1-(5,5-Difluoro-2-oxotetrahydropyrimidin-1(2H)-yl)-2-methoxyethyl)imidazo[1,2-b]pyridazin-2-yl)(4,4-difluorocyclohexyl)methyl)-4-(2,2,2-trifluoroethyl)isoxazole-3-carboxamide], the pIC50 [1] was > 7.30 and the pIC50 [2] was > 7.30.
`[2H]C1([2H])NC(=O)N([C@H](COC2CC2)c2cnn3cc([C@@H](NC(=O)c4nocc4CC(F)(F)F)C4CCC(F)(F)CC4)nc3c2)C([2H])([2H])C1(F)F` [Example 107, N—((S)-(7-((S)-2-Cyclopropoxy-1-(5,5-difluoro-2-oxotetrahydropyrimidin-1(2H)-yl-4,4,6,6-d4)ethyl)imidazo[1,2-b]pyridazin-2-yl)(4,4-difluorocyclohexyl)methyl)-4-(2,2,2-trifluoroethyl)isoxazole-3-carboxamide] was tested, and the pIC50 [1] was > 7.30 and the pIC50 [2] was > 7.30.
`COC[C@H](c1cnn2cc([C@@H](NC(=O)c3nonc3OC)C3CCC(F)(F)CC3)nc2c1)N1CC(F)(F)CNC1=O` [Example 108, N—((S)-(7-((S)-1-(5,5-Difluoro-2-oxotetrahydropyrimidin-1(2H)-yl)-2-methoxyethyl)imidazo[1,2-b]pyridazin-2-yl)(4,4-difluorocyclohexyl)methyl)-4-methoxy-1,2,5-oxadiazole-3-carboxamide] was tested, and the pIC50 [1] was > 7.30 and the pIC50 [2] was > 7.30.
In the case of `COC[C@H](c1cnn2cc([C@H](CCC(C)(C)C(F)(F)F)NC(=O)c3nonc3OC)nc2c1)N1CC(F)(F)CNC1=O` [Example 109, N—((S)-1-(7-((S)-1-(5,5-Difluoro-2-oxotetrahydropyrimidin-1(2H)-yl)-2-methoxyethyl)imidazo[1,2-b]pyridazin-2-yl)-5,5,5-trifluoro-4,4-dimethylpentyl)-4-methoxy-1,2,5-oxadiazole-3-carboxamide], the pIC50 [1] was > 7.30 and the pIC50 [2] was > 7.30.
In the case of `COC[C@H](c1cnn2cc([C@H](CCC(C)(C)C(F)(F)F)NC(=O)c3nonc3C(F)F)nc2c1)N1CC(F)(F)CNC1=O` [Example 110, N—((S)-1-(7-((S)-1-(5,5-Difluoro-2-oxotetrahydropyrimidin-1(2H)-yl)-2-methoxyethyl)imidazo[1,2-b]pyridazin-2-yl)-5,5,5-trifluoro-4,4-dimethylpentyl)-4-(difluoromethyl)-1,2,5-oxadiazole-3-carboxamide], the pIC50 [1] was > 7.30 and the pIC50 [2] was > 7.30.
In the case of `COC[C@H](c1cnn2cc([C@H](CCC(C)(C)C(F)(F)F)NC(=O)c3ncnn3C(C)C)nc2c1)N1CC(F)(F)CNC1=O` [Example 111, N—((S)-1-(7-((S)-1-(5,5-Difluoro-2-oxotetrahydropyrimidin-1(2H)-yl)-2-methoxyethyl)imidazo[1,2-b]pyridazin-2-yl)-5,5,5-trifluoro-4,4-dimethylpentyl)-1-isopropyl-1H-1,2,4-triazole-5-carboxamide], the pIC50 [1] was > 7.30 and the pIC50 [2] was > 7.30.
In the case of `[2H]C1([2H])NC(=O)N([C@H](COC)c2cnn3cc([C@H](CCC(C)(C)C(F)(F)F)NC(=O)c4ncnn4C(C)C)nc3c2)C([2H])([2H])C1(F)F` [Example 112, N—((S)-1-(7-((S)-1-(5,5-Difluoro-2-oxotetrahydropyrimidin-1(2H)-yl-4,4,6,6-d4)-2-methoxyethyl)imidazo[1,2-b]pyridazin-2-yl)-5,5,5-trifluoro-4,4-dimethylpentyl)-1-isopropyl-1H-1,2,4-triazole-5-carboxamide], the pIC50 [1] was > 7.30 and the pIC50 [2] was 7.00 to 7.30.
For `COc1nonc1C(=O)N[C@@H](CCC(C)(C)C(F)(F)F)c1cn2ncc(CN3CC(F)(F)CNC3=O)cc2n1` [Example 113, (S)—N-(1-(7-((5,5-Difluoro-2-oxotetrahydropyrimidin-1(2H)-yl)methyl)imidazo[1,2-b]pyridazin-2-yl)-5,5,5-trifluoro-4,4-dimethylpentyl)-4-methoxy-1,2,5-oxadiazole-3-carboxamide], the pIC50 [1] was > 7.30 and the pIC50 [2] was > 7.30.
With `CC(C)(CC[C@H](NC(=O)c1nonc1C1CC1)c1cn2ncc(CN3CC(F)(F)CNC3=O)cc2n1)C(F)(F)F` [Example 114, (S)-4-Cyclopropyl-N-(1-(7-((5,5-difluoro-2-oxotetrahydropyrimidin-1(2H)-yl)methyl)imidazo[1,2-b]pyridazin-2-yl)-5,5,5-trifluoro-4,4-dimethylpentyl)-1,2,5-oxadiazole-3-carboxamide] the pIC50 [1] was > 7.30 and the pIC50 [2] was > 7.30.
With `Cc1nonc1C(=O)N[C@@H](CCC(C)(C)C(F)(F)F)c1cn2ncc(CN3CC(F)(F)CNC3=O)cc2n1` [Example 115, (S)—N-(1-(7-((5,5-Difluoro-2-oxotetrahydropyrimidin-1(2H)-yl)methyl)imidazo[1,2-b]pyridazin-2-yl)-5,5,5-trifluoro-4,4-dimethylpentyl)-4-methyl-1,2,5-oxadiazole-3-carboxamide] the pIC50 [1] was > 7.30 and the pIC50 [2] was 7.00 to 7.30.
In the case of `COc1nonc1C(=O)N[C@@H](CCC(C)(C)C(F)(F)F)c1cn2ncc([C@@H](COC3CC3)N3CC(F)(F)CNC3=O)cc2n1` [Example 122, N—((S)-1-(7-((S)-2-Cyclopropoxy-1-(5,5-difluoro-2-oxotetrahydropyrimidin-1(2H)-yl)ethyl)imidazo[1,2-b]pyridazin-2-yl)-5,5,5-trifluoro-4,4-dimethylpentyl)-4-methoxy-1,2,5-oxadiazole-3-carboxamide], the pIC50 [1] was > 7.30 and the pIC50 [2] was > 7.30.
For `COC[C@H](c1cnn2cc([C@@H](NC(=O)c3nonc3C)C3CCC(F)(F)CC3)nc2c1)N1CC(F)(F)C(F)(F)CNC1=O` [Example 123, N—((S)-(4,4-Difluorocyclohexyl)(7-((S)-2-methoxy-1-(5,5,6,6-tetrafluoro-2-oxo-1,3-diazepan-1-yl)ethyl)imidazo[1,2-b]pyridazin-2-yl)methyl)-4-methyl-1,2,5-oxadiazole-3-carboxamide], the pIC50 [1] was > 7.30 and the pIC50 [2] was 7.00 to 7.30.
With `COC[C@H](c1cnn2cc([C@@H](NC(=O)c3nonc3OC)C3CCC(F)(F)CC3)nc2c1)N1CC(F)(F)C(F)(F)CNC1=O` [Example 124, N—((S)-(4,4-Difluorocyclohexyl)(7-((S)-2-methoxy-1-(5,5,6,6-tetrafluoro-2-oxo-1,3-diazepan-1-yl)ethyl)imidazo[1,2-b]pyridazin-2-yl)methyl)-4-methoxy-1,2,5-oxadiazole-3-carboxamide] the pIC50 [1] was > 7.30 and the pIC50 [2] was 7.00 to 7.30.

Reference: patent publication US12173007B2, “Imidazopyridazine IL-17 inhibitor compounds” (Janssen Pharmaceutica NV, priority 2021, dated 2024)
